Experimental data as given in patent publication US20260191861A1, “INFLAMMASOME AND VEGF INHIBITION FOR RETINAL VASCULAR DISEASES” (University of Virginia Patent Foundation, priority 2022, published 2026).

Legend:
Type in all cases: in vivo, human
[1] = tested on: participants with diabetic macular edema; test: Retinal central subfield thickness by spectral-domain OCT, including synthetic controls from DRCR.net Protocol T
Method: (§1) Propensity score methods were used to select DRCR.net Protocol T study participants similar to lamivudine-treated patients. Inverse probability treatment weights (IPTW) and propensity score matching were used. To estimate the IPTW weights, a multinomial logistic regression was used to estimate propensity scores using important predictors including baseline visual acuity and baseline central subfield thickness along with age, gender, and duration of diabetes. Weights were calculated as the reciprocal of the estimated propensity score of the actual treatment received. Weights were then truncated at the 99th percentile. For the propensity score matched analysis, lamivudine-treated patients were matched to each DRCR.net Protocol T treatment arm (aflibercept, bevacizumab, ranibizumab) and placebo group, separately. Due to the limited sample size for matching within each group, propensity score models included the most important predictors of acuity change including baseline visual acuity, age and duration of diabetes.
(§2) For the IPTW analysis, a mixed-effects weighted model was fit with subject-specific random effects. […] The model's estimates, confidence intervals (CI), and P values were reported for each predictor. Additionally, model-based contrasts were conducted to compare the change in VALS from baseline between lamivudine and the Protocol T treatments.
(§3) Secondary outcomes included the change in central subfield thickness, the percentage of eyes with an improvement in VALS of 15 or more, the correlation between improvements in visual acuity and central subfield thickness, and systemic and ocular adverse events. Change in central subfield thickness was estimated using mixed-effects models, similar to the VALS analysis. To analyze a VALS improvement of at least 15 letters, logistic regression using generalized estimating equations (GEEs) was specified with an exchangeable correlation matrix. Model-based contrasts were estimated to make pairwise treatment comparisons.
In all consultations, patients underwent tomography with the Spectralis device (Heidelberg) under mydriasis. The acquisition protocol was the 6×6 mm region centered on the fovea. Data analysis from SD-OCT was restricted to the central field (1 mm in diameter) Intravitreous Injection of Anti-VEGF

[2] = tested on: participants with diabetic macular edema; test: Systemic and ocular adverse events in the lamivudine versus placebo trial
Text: If the participant developed high-risk proliferative diabetic retinopathy or had to undergo any ocular surgery during the study period, they would be excluded. Patients were monitored for adverse events by the assessing physician, and new laboratory tests could be performed at the physician's discretion.
as §3

[3] = tested on: participants with diabetic macular edema; test: Visual acuity (VALS) compared with synthetic controls from the DRCR.net Protocol T study (IPTW, propensity score matching, GEE); settings: for Model-based contrast: change in visual acuity, Lamivudine vs. Aflibercept / Model-based contrast: change in visual acuity, Lamivudine vs. Bevacizumab / Model-based contrast: change in visual acuity, Lamivudine vs. Ranibizumab: IPTW model; for Mixed-effect model: change in visual acuity from baseline, Lamivudine vs Placebo / Mixed-effect model: change in visual acuity from baseline, Lamivudine vs. Aflibercept / Mixed-effect model: change in visual acuity from baseline, Lamivudine vs. Bevacizumab / Mixed-effect model: change in visual acuity from baseline, Lamivudine vs. Ranibizumab: propensity score matching
Text: The second analysis included participants from the lamivudine versus placebo trial, along with a synthetic comparator created using data from the DRCR.net Protocol T study. The source of the data is DRCR.net (2018) A Comparative Effectiveness Study of Intravitreal Aflibercept, Bevacizumab and Ranibizumab for Diabetic Macular Edema, retrieved from https://public.jaeb.org/drcrnet/stdy/download/206. The analyses, content, and conclusions presented herein are solely the responsibility of the authors and have not been reviewed or approved by DRCR.net.
Inclusion criteria for participants from the DRCR.net Protocol T study were based on their similarity to the lamivudine versus placebo trial design. This involved selecting only patients with type 2 diabetes, study eyes with a baseline VALS<69, and complete follow-up visual acuity measurements at weeks 4 and 8.
as §1, §2
For each propensity score matched group (e.g., lamivudine-bevacizumab, lamivudine-aflibercept), a mixed effect model was fit estimating the change in visual acuity from baseline. Subject specific random effect was included along with fixed effect predictors: treatment group, baseline VALS, central subfield thickness, eye (left vs right), age, sex, race and type 2 diabetes duration.
as §3

[4] = ocular adverse event, of 16 eyes
[5] = systemic adverse event, of 10 subjects

Compound: Nc1ccn([C@@H]2CS[C@H](CO)O2)c(=O)n1 [Lamivudine]
- IPTW mixed-effect model: change in central subfield thickness, Treatment × week [8] estimate ([1]; IPTW model, interaction term): 41.98 μm
- IPTW mixed-effect model: change in central subfield thickness from baseline, treatment estimate (ref = Placebo) ([1]; IPTW model, main effect (week 4)): −48.84 μm
- IPTW contrast: change in central subfield thickness, Lamivudine vs Bevacizumab ([1]; week 4): 17.5 μm
- IPTW contrast: change in central subfield thickness, Lamivudine vs Placebo ([1]; week 4): −48.84 μm
- IPTW contrast: change in central subfield thickness, Lamivudine vs. Aflibercept ([1]; week 4): 55.49 μm
- IPTW contrast: change in central subfield thickness, Lamivudine vs. Ranibizumab ([1]; week 4): 64.83 μm
- IPTW contrast: change in central subfield thickness, Lamivudine vs. Aflibercept ([1]; week 4, listed as lamivudine): 55 μm
- IPTW contrast: change in central subfield thickness, Lamivudine vs. Ranibizumab ([1]; week 4, listed as lamivudine): 65 μm
- IPTW contrast: change in central subfield thickness, Lamivudine vs Bevacizumab ([1]; week 8): −15.34 μm
- IPTW contrast: change in central subfield thickness, Lamivudine vs Placebo ([1]; week 8): −6.86 μm
- IPTW contrast: change in central subfield thickness, Lamivudine vs. Aflibercept ([1]; week 8): 28.93 μm
- IPTW contrast: change in central subfield thickness, Lamivudine vs. Ranibizumab ([1]; week 8): 31.81 μm
- Propensity score matched contrast: change in central subfield thickness, Lamivudine vs. Aflibercept ([1]; week 4): 92.6 μm
- Propensity score matched contrast: change in central subfield thickness, Lamivudine vs. Bevacizumab ([1]; week 4): 12.6 μm
- Propensity score matched contrast: change in central subfield thickness, Lamivudine vs. Placebo ([1]; week 4): −47.7 μm
- Propensity score matched contrast: change in central subfield thickness, Lamivudine vs. Ranibizumab ([1]; week 4): 115.7 μm
- Propensity score matched contrast: change in central subfield thickness, Lamivudine vs. Aflibercept ([1]; week 4, listed as lamivudine): 93 μm
- Propensity score matched contrast: change in central subfield thickness, Lamivudine vs. Ranibizumab ([1]; week 4, listed as lamivudine): 116 μm
- Propensity score matched contrast: change in central subfield thickness, Lamivudine vs. Aflibercept ([1]; week 8): 21.2 μm
- Propensity score matched contrast: change in central subfield thickness, Lamivudine vs. Bevacizumab ([1]; week 8): −63.4 μm
- Propensity score matched contrast: change in central subfield thickness, Lamivudine vs. Placebo ([1]; week 8): −38.1 μm
- Propensity score matched contrast: change in central subfield thickness, Lamivudine vs. Ranibizumab ([1]; week 8): 37.1 μm
- Mixed-effect model: change in central subfield thickness, Treatment × week [8] estimate ([1]; unweighted model, interaction term): 3.8 μm
- Mixed-effect model: change in central subfield thickness from baseline, treatment estimate (ref = Placebo) ([1]; unweighted model, main effect (week 4)): −44.91 μm
- Contrast: change in central subfield thickness, Lamivudine vs Bevacizumab ([1]; unweighted model, week 4): 30.65 μm
- Contrast: change in central subfield thickness, Lamivudine vs Placebo ([1]; unweighted model, week 4): −44.91 μm
- Contrast: change in central subfield thickness, Lamivudine vs. Aflibercept ([1]; unweighted model, week 4): 69.64 μm
- Contrast: change in central subfield thickness, Lamivudine vs. Ranibizumab ([1]; unweighted model, week 4): 77.22 μm
- Contrast: change in central subfield thickness, Lamivudine vs Bevacizumab ([1]; unweighted model, week 8): −50.42 μm
- Contrast: change in central subfield thickness, Lamivudine vs Placebo ([1]; unweighted model, week 8): −41.1 μm
- Contrast: change in central subfield thickness, Lamivudine vs. Aflibercept ([1]; unweighted model, week 8): −1.39 μm
- Contrast: change in central subfield thickness, Lamivudine vs. Ranibizumab ([1]; unweighted model, week 8): −4.66 μm
- percentage of eyes with VALS improvement of 15 or more that had minimal improvement in central subfield thickness (≤50 μm) ([1]; week 8, lamivudine group): 64%
- Endophthalmitis - (%) [2, 4]: (0%)
- Endophthalmitis - N [2, 4]: 0
- Increase in intraocular pressure ≥10 mm Hg from baseline - (%) [2, 4]: (0%)
- Increase in intraocular pressure ≥10 mm Hg from baseline - N [2, 4]: 0
- Intraocular inflammation* - (%) [2, 4]: (0%)
- Intraocular inflammation* - N [2, 4]: 0
- Retinal detachment - (%) [2, 4]: (0%)
- Retinal detachment - N [2, 4]: 0
- Subconjunctival hemorrhage - (%) [2, 4]: (18.8%)
- Subconjunctival hemorrhage - N [2, 4]: 3
- Traumatic cataract - (%) [2, 4]: (0%)
- Traumatic cataract - N [2, 4]: 0
- Vitreous hemorrhage - (%) [2, 4]: (0%)
- Vitreous hemorrhage - N [2, 4]: 0
- Abdominal pain - (%) [2, 5]: (0%)
- Abdominal pain - N [2, 5]: 0
- Alopecia - (%) [2, 5]: (0%)
- Alopecia - N [2, 5]: 0
- Arthralgia - (%) [2, 5]: (0%)
- Arthralgia - N [2, 5]: 0
- Diarrhea - (%) [2, 5]: (10%)
- Diarrhea - N [2, 5]: 1
- Disphoresis - (%) [2, 5]: (10%)
- Disphoresis - N [2, 5]: 1
- Fatigue - (%) [2, 5]: (10%)
- Fatigue - N [2, 5]: 1
- Headache - (%) [2, 5]: (20%)
- Headache - N [2, 5]: 2
- Myalgia - (%) [2, 5]: (0%)
- Myalgia - N [2, 5]: 0
- Nausea or vomiting - (%) [2, 5]: (20%)
- Nausea or vomiting - N [2, 5]: 2
- Pruritus - (%) [2, 5]: (20%)
- Pruritus - N [2, 5]: 2
- Skin rash - (%) [2, 5]: (0%)
- Skin rash - N [2, 5]: 0
- ocular adverse events ([2]; week 4): no ocular adverse events
- subconjunctival hemorrhage after intravitreous injection ([2]; week 8): three
- Model-based contrast: change in visual acuity, Lamivudine vs. Aflibercept [3]: 3.73
- Model-based contrast: change in visual acuity, Lamivudine vs. Bevacizumab [3]: 6.83
- Model-based contrast: change in visual acuity, Lamivudine vs. Ranibizumab [3]: 5.04
- Mixed effect model: change from baseline visual acuity, treatment estimate (ref: Placebo) ([3]; IPTW model with synthetic controls): 12.15
- Mixed effect model: change from baseline visual acuity, treatment estimate (ref: Placebo) ([3]; IPTW model with synthetic controls, listed as lamivudine): 12.2
- Model-based contrast: change in visual acuity, Lamivudine vs. Aflibercept ([3]; listed as lamivudine): 3.7
- Model-based contrast: change in visual acuity, Lamivudine vs. Bevacizumab ([3]; listed as lamivudine): 6.8
- Model-based contrast: change in visual acuity, Lamivudine vs. Ranibizumab ([3]; listed as lamivudine): 5.0
- Mixed effect model: change from baseline visual acuity, treatment estimate (ref: Placebo) ([3]; Original (unweighted) model with synthetic controls): 11.19
- Mixed-effect model: change in visual acuity from baseline, Lamivudine vs Placebo [3]: 10.88
- Mixed-effect model: change in visual acuity from baseline, Lamivudine vs. Aflibercept [3]: 2.33
- Mixed-effect model: change in visual acuity from baseline, Lamivudine vs. Bevacizumab [3]: 8.95
- Mixed-effect model: change in visual acuity from baseline, Lamivudine vs. Ranibizumab [3]: 7.24
- Mixed-effect model: change in visual acuity from baseline, Lamivudine vs Placebo ([3]; listed as lamivudine): 10.9
- Mixed-effect model: change in visual acuity from baseline, Lamivudine vs. Aflibercept ([3]; listed as lamivudine): 2.3
- Mixed-effect model: change in visual acuity from baseline, Lamivudine vs. Bevacizumab ([3]; listed as lamivudine): 9
- Mixed-effect model: change in visual acuity from baseline, Lamivudine vs. Ranibizumab ([3]; listed as lamivudine): 7.3
